Assay results published in ChEMBL document CHEMBL1201862, “PubChem BioAssay data set” (2004).
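Method: 48-hour compound exposure of cells in 96-well plates, five concentrations, linear interpolation of endpoints. Abbreviation: GI50, concentration required for 50% inhibition of growth.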 The source made the active and inactive calls. Rule as the data show it: active = GI50 up to about 1.1 µM and inactive = higher.

Experiments:
Test in all cases: DTP human tumour cell line panel, 48 h
[1] = tested on: MOLT-4
[2] = tested on: HCT-15
[3] = tested on: RPMI-8226
[4] = tested on: M19-MEL
[5] = tested on: DMS-114
[6] = tested on: OVCAR-5
[7] = tested on: HL-60
[8] = tested on: HOP-62
[9] = tested on: IGROV-1
[10] = tested on: OVCAR-4
[11] = tested on: NCI-H522
[12] = tested on: M14
[13] = tested on: HCT-116
[14] = tested on: CAKI-1
[15] = tested on: HOP-92
[16] = tested on: NCI-H23
[17] = tested on: SN12C
[18] = tested on: KM-20L2
[19] = tested on: SW-620
[20] = tested on: ACHN
[21] = tested on: Malme-3M
[22] = tested on: SK-MEL-28
[23] = tested on: LXFL 529
[24] = tested on: A498
[25] = tested on: TK-10
[26] = tested on: UACC-62
[27] = tested on: SK-MEL-5
[28] = tested on: OVCAR-3
[29] = tested on: U-251
[30] = tested on: SF-539
[31] = tested on: A549
[32] = tested on: SF-268
[33] = tested on: COLO 205
[34] = tested on: SNB-19
[35] = tested on: DMS-273
[36] = tested on: DLD-1
[37] = tested on: RXF 393
[38] = tested on: K562
[39] = tested on: SF-295
[40] = tested on: UO-31
[41] = tested on: SK-MEL-2
[42] = tested on: KM12
[43] = tested on: SNB-75
[44] = tested on: HCC 2998
[45] = tested on: EKVX
[46] = tested on: NCI-H460
[47] = tested on: UACC-257
[48] = tested on: SK-OV-3
[49] = tested on: XF498
[50] = tested on: CCRF-CEM
[51] = tested on: HT-29
[52] = tested on: OVCAR-8
[53] = tested on: HOP-18
[54] = tested on: 786-0
[55] = tested on: NCI-H226
[56] = tested on: LOX IMVI
[57] = tested on: SR
[58] = tested on: SNB-78

CCNc1cnc2c(n1)c(=O)n(C)c(=O)n2C
GI50 [1]: > 100 µM (inactive) | GI50 [2]: > 100 µM | GI50 [3]: > 100 µM (inactive) | GI50 [4]: > 100 µM (inactive) | GI50 [5]: > 100 µM (inactive) | GI50 [6]: > 100 µM (inactive) | GI50 [7]: > 100 µM (inactive) | GI50 [8]: > 100 µM (inactive) | GI50 [9]: > 100 µM (inactive) | GI50 [10]: > 100 µM (inactive) | GI50 [11]: > 100 µM (inactive) | GI50 [12]: > 100 µM (inactive) | GI50 [13]: > 100 µM (inactive) | GI50 [14]: > 100 µM (inactive) | GI50 [15]: > 100 µM (inactive) | GI50 [16]: > 100 µM (inactive) | GI50 [17]: > 100 µM (inactive) | GI50 [18]: > 100 µM (inactive) | GI50 [19]: > 100 µM (inactive) | GI50 [20]: > 100 µM (inactive) | GI50 [21]: > 100 µM (inactive) | GI50 [22]: > 100 µM (inactive) | GI50 [23]: > 100 µM (inactive) | GI50 [24]: > 100 µM (inactive) | GI50 [25]: > 100 µM (inactive) | GI50 [26]: > 100 µM (inactive) | GI50 [27]: > 100 µM (inactive) | GI50 [28]: > 100 µM (inactive) | GI50 [29]: > 100 µM (inactive) | GI50 [30]: > 100 µM (inactive) | GI50 [31]: > 100 µM (inactive) | GI50 [32]: > 100 µM (inactive) | GI50 [33]: > 100 µM (inactive) | GI50 [34]: > 100 µM (inactive) | GI50 [35]: > 100 µM (inactive) | GI50 [36]: > 100 µM (inactive) | GI50 [37]: 84.9 µM (inactive) | GI50 [38]: > 100 µM (inactive) | GI50 [39]: > 100 µM (inactive) | GI50 [40]: > 100 µM (inactive) | GI50 [41]: > 100 µM (inactive) | GI50 [42]: > 100 µM (inactive) | GI50 [43]: 48.9 µM (inactive) | GI50 [44]: > 100 µM (inactive) | GI50 [45]: 34.1 µM (inactive) | GI50 [46]: > 100 µM (inactive) | GI50 [47]: > 100 µM (inactive) | GI50 [48]: > 100 µM (inactive) | GI50 [49]: > 100 µM (inactive) | GI50 [50]: > 100 µM (inactive) | GI50 [51]: > 100 µM (inactive) | GI50 [52]: > 100 µM (inactive)

CCCCCCC(O)CC[C@H]1CCC[C@@H](C)N1 (some centres undefined)
GI50 [53]: > 100 µM (inactive) | GI50 [1]: > 100 µM (inactive) | GI50 [2]: > 31.6 µM | GI50 [3]: > 100 µM (inactive) | GI50 [4]: > 31.6 µM (inactive) | GI50 [5]: > 31.6 µM (inactive) | GI50 [6]: > 10 µM (inactive) | GI50 [7]: > 100 µM (inactive) | GI50 [8]: > 31.6 µM (inactive) | GI50 [9]: > 100 µM (inactive) | GI50 [10]: > 10 µM (inactive) | GI50 [11]: > 100 µM (inactive) | GI50 [12]: > 100 µM (inactive) | GI50 [13]: > 100 µM (inactive) | GI50 [14]: > 100 µM (inactive) | GI50 [15]: > 100 µM (inactive) | GI50 [16]: > 10 µM (inactive) | GI50 [17]: > 100 µM (inactive) | GI50 [18]: > 10 µM (inactive) | GI50 [19]: > 100 µM (inactive) | GI50 [20]: > 100 µM (inactive) | GI50 [21]: > 100 µM (inactive) | GI50 [22]: > 31.6 µM (inactive) | GI50 [23]: > 100 µM (inactive) | GI50 [24]: > 10 µM (inactive) | GI50 [25]: > 100 µM (inactive) | GI50 [26]: 72.6 µM (inactive) | GI50 [27]: 55 µM (inactive) | GI50 [28]: > 10 µM (inactive) | GI50 [29]: > 31.6 µM (inactive) | GI50 [30]: > 100 µM (inactive) | GI50 [31]: > 100 µM (inactive) | GI50 [32]: > 31.6 µM (inactive) | GI50 [33]: > 31.6 µM (inactive) | GI50 [54]: > 10 µM (inactive) | GI50 [34]: > 10 µM (inactive) | GI50 [35]: > 100 µM (inactive) | GI50 [36]: > 100 µM (inactive) | GI50 [37]: > 100 µM (inactive) | GI50 [38]: > 100 µM (inactive) | GI50 [39]: > 31.6 µM (inactive) | GI50 [40]: > 84.3 µM (inactive) | GI50 [41]: > 10 µM (inactive) | GI50 [42]: > 10 µM (inactive) | GI50 [43]: > 31.6 µM (inactive) | GI50 [44]: > 19.9 µM (inactive) | GI50 [45]: > 100 µM (inactive) | GI50 [46]: > 100 µM (inactive) | GI50 [47]: > 10 µM (inactive) | GI50 [48]: > 100 µM (inactive) | GI50 [55]: > 100 µM (inactive) | GI50 [56]: > 100 µM (inactive) | GI50 [50]: > 100 µM (inactive) | GI50 [57]: > 100 µM (inactive) | GI50 [58]: > 100 µM (inactive) | GI50 [51]: 29 µM (inactive) | GI50 [52]: > 10 µM (inactive)
